Assay [1] is described as follows: Antioxidant activity assessed as DPPH radical scavenging activity by spectrophotometric analysis. Type of assay: functional.
Assay [2] addresses T1, Polyunsaturated fatty acid 5-lipoxygenase (Homo sapiens, UniProt P09917).
T1 sequence (P09917 whole entry): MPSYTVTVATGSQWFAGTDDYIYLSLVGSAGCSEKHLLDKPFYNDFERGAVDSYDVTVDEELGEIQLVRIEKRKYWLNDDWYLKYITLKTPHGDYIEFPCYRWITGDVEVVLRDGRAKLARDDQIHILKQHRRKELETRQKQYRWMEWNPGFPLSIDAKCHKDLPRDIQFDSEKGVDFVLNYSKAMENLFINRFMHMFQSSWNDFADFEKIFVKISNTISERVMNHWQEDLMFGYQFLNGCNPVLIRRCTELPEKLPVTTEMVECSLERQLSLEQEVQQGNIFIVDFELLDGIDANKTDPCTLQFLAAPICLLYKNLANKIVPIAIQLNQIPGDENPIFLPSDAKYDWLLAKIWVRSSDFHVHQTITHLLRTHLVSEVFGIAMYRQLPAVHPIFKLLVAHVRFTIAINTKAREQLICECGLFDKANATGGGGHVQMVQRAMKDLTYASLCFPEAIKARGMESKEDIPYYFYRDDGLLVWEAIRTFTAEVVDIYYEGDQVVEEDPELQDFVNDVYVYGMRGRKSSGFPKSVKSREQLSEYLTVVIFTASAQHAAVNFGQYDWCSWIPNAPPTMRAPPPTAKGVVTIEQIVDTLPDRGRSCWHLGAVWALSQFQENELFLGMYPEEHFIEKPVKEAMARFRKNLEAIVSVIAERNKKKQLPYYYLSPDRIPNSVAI
In words: Inhibition of 5-LOX (unknown origin) by spectrophotometric method.

Assay [3] deals with T2, Prostaglandin G/H synthase 2 (Homo sapiens, UniProt P35354).
T2 sequence (P35354 whole entry): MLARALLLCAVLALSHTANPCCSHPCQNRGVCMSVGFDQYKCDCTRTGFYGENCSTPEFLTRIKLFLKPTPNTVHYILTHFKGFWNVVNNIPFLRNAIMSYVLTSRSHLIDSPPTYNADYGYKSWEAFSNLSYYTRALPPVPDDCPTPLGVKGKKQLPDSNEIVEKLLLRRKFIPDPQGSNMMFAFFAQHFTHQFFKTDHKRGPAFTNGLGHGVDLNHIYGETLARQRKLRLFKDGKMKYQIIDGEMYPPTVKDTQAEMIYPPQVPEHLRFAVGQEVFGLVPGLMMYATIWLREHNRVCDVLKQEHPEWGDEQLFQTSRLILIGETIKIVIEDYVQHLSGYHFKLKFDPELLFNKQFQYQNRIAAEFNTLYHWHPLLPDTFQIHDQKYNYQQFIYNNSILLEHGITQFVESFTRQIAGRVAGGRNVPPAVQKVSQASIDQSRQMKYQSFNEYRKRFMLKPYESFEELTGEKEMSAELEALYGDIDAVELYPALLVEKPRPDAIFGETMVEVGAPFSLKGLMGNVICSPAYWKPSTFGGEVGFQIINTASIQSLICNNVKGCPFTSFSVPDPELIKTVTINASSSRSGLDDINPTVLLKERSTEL
In words: Inhibition of COX-2 (unknown origin) by 2,7-dichlorofluorescein dye based spectrophotometric method.

Assay [4] deals with T2, Prostaglandin G/H synthase 2. The experiment in a line: Inhibition of recombinant human COX-2 using arachidonic acid as substrate preincubated for 5 mins followed by substrate addition and measured after 20 mins by ELISA. A general note: In an ELISA, binding on a coated surface is turned into a signal by an enzyme label.
Assay [5] has as its target T1, Polyunsaturated fatty acid 5-lipoxygenase. In words: Inhibition of recombinant human 5-LOX using arachidonic acid as substrate preincubated for 10 mins followed by substrate addition and measured after 10 mins by ELISA.
Assay [6] has as its target T2, Prostaglandin G/H synthase 2. The experiment in a line: Inhibition of COX-2 (unknown origin) by colorimetric method.
Assay [7] has as its target T1, Polyunsaturated fatty acid 5-lipoxygenase. The experiment in a line: Inhibition of human 5-LOX by colorimetric assay.
Assay [8] deals with T3, Prostaglandin G/H synthase 1 (Homo sapiens, UniProt P23219). In words: Inhibition of COX-1 (unknown origin) by enzyme immune assay.
The next assay deals with DLD-1. The experiment in a line: Anticancer activity against human DLD-1 cells assessed as cell growth inhibition incubated for 3 hrs by Sulforhodamine B assay. Type of assay: functional, cell-based. The settings on record: DLD-1, 3 h.
In assay [9] the target is T2, Prostaglandin G/H synthase 2. The experiment in a line: Inhibition of COX-2 (unknown origin) by enzyme immune assay.
Another assay has as its system MCF7. In words: Anticancer activity against human MCF7 cells assessed as cell growth inhibition incubated for 3 hrs by Sulforhodamine B assay. Type of assay: functional, cell-based. The settings on record: MCF7, 3 h.
The next assay relates to Rattus norvegicus. The experiment in a line: Antiinflammatory activity in Wistar rat assessed as reduction in carragenan-induced paw edema at 10 mg/kg, po for 7 days followed by carrageenan stimulation and measured upto 6 hrs by vernier caliper method. Type of assay: functional. Set-up: scale not given: the % may be the effect or the level left. To be noted: time 7 day.

The species named for another assay is Homo sapiens. The experiment in a line: Selectivity index, ratio of IC50 for inhibition of human COX1 to IC50 for inhibition of human COX2.
Assay [10] has as its target T3, Prostaglandin G/H synthase 1. In words: Inhibition of human COX-1 using arachidonic acid as substrate preincubated for 10 mins followed by substrate addition and measured after 2 mins by ELISA.
A short description of assay [11]: Inhibition of potato 5-LOX using linoleic acid as substrate preincubated for 5 mins followed by substrate addition and measured after 5 mins by spectrophotometric assay. Set-up: species or system Solanum tuberosum.

SMILES strings stand for the structures. Values after ≈ are worked out from the molar mass of the structure shown.

Broadly, the IC50 is the concentration that gives 50% inhibition.

T3 sequence (P23219 whole entry): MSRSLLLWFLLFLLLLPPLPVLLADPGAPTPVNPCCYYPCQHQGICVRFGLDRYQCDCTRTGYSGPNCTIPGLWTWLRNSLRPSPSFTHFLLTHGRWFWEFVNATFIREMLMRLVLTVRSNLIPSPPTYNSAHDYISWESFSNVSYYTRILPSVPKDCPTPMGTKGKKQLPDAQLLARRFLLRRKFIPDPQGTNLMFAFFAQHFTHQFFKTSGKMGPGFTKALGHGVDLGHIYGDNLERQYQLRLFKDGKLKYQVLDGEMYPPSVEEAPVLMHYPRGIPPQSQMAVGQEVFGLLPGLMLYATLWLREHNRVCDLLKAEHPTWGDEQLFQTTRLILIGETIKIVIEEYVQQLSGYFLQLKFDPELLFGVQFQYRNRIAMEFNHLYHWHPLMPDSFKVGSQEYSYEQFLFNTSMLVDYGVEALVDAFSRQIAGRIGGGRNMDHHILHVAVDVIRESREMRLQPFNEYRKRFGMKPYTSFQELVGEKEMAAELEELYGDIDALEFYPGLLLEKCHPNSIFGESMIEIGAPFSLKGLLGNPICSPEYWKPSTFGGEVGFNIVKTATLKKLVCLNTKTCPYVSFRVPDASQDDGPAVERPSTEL

Take `CCC[C@H](O)CCOC(=O)CC[C@]1(C)C=CC[C@@H](C)[C@@]12C=CC(C)(CC)O2` (stereo not given in full): the results for the half-inhibitory concentration (IC50) in [1], in assay [2] and in assay [3] were 590 µg/mL (≈ 1560 µM), 2030 µM and 1850 µM, respectively.
For `COc1cc(/C=C/c2ccc(O)cc2)cc(OC)c1` [PTEROSTILBENE], the IC50 in assay [4] turned out to be 5.99 µM; in assay [5], 1.63 µM.
With `CC[C@H](CO)[C@@](C)(O)C/C=C/C(C)(C)OC(=O)C[C@]1(C)C=CC[C@@H](C)[C@@]12C=CC(C)(CC)O2` (stereo not given in full), the results for the IC50 in assay [1], in assay [2] and in assay [3] were 540 µg/mL (≈ 1170 µM), 1620 µM and 1400 µM, respectively.
As for `O=C1/C(=C/c2ccc(Cl)cc2)N=C(c2ccccc2)N1c1ccc(-c2nc3ccccc3o2)cc1`, the half-inhibitory concentration (IC50) in [6] came to 0.25 µM; in assay [7], 0.02 µM.
`COc1cc(O)cc(/C=C/c2ccc(O)cc2)c1`: the results for the IC50 in assay [4] and in [5] were 0.25 µM and 4.01 µM, respectively.
On to `C=C1CC[C@@H]2[C@H](CC2(C)C)C(=C)CC[C@H]1O`, for which the IC50 in [8] was 395 µM; in the assay with DLD-1 it was 52.5 µg/mL (≈ 238 µM); in assay [9], 399 µM; with MCF7, 82 µg/mL (≈ 372 µM).
In the case of `Cc1ccc(-c2nc(N(c3ccccc3)c3ccccc3)sc2C(=O)c2cccs2)cc1`, in the assay on Rattus norvegicus, the Activity was found to be 60.82%. Further, in the assay filed under Homo sapiens, the Ratio IC50 amounted to 61.7. The IC50 was found to be 5.55 µM in assay [10] and 0.38 µM in assay [11].

(Values after ChEMBL document CHEMBL5241097, “Synthetically-tailored and nature-derived dual COX-2/5-LOX inhibitors: Structural aspects and SAR” (Eur J Med Chem, 2021).)
